Measurements reported in patent publication US12129312B2, “Peptide compound, application thereof and composition containing same” (priority 2017, dated 2024).
pEC50: −log10 of the molar value. Where two headings read alike, the source gives them in different places. Numbered stars: 1 amine (or outer) side, 2 acyl side, 3 side chain; on linkers, the order of the positions; unused ones are H or OH. Square brackets hold non-standard residues; d marks the D form. Peptide text beside a SMILES is read from it. * marks the point of attachment. X7 = O=C([C@@H](Cc1ccc(O)cc1)NC(=S)NCCc1ccccc1)*; Gly(Nα-CH2CH2CONH2) = NC(=O)CCNCC(=O)O; 1Nal = N[C@@H](Cc1cccc2ccccc12)C(=O)O; 2Nal = N[C@@H](Cc1ccc2ccccc2c1)C(=O)O; Pentanoyl(5-Ph) = O=C(CCCCc1ccccc1)*; dNMeY = CN[C@H](Cc1ccc(O)cc1)C(=O)O; Cyclohexylacetyl = O=C(CC1CCCCC1)*; X3 = O=C(N1Cc2ccccc2CN1[*:1])[*:2]; NEtLeu = CCN[C@@H](CC(C)C)C(=O)O; NMeQ = CN[C@@H](CCC(N)=O)C(=O)O; Tic = O=C(O)[C@@H]1Cc2ccccc2CN1; dTic = O=C(O)[C@H]1Cc2ccccc2CN1; NMeL = CN[C@@H](CC(C)C)C(=O)O; NMeS = CN[C@@H](CO)C(=O)O

Biological target: T1, human Chemokine like receptor 1 (Homo sapiens, UniProt Q99788)
T1 construct: host or cells: U2OS (Tango CMKLR1-bla U2OS)
T1 sequence (Q99788 1-373): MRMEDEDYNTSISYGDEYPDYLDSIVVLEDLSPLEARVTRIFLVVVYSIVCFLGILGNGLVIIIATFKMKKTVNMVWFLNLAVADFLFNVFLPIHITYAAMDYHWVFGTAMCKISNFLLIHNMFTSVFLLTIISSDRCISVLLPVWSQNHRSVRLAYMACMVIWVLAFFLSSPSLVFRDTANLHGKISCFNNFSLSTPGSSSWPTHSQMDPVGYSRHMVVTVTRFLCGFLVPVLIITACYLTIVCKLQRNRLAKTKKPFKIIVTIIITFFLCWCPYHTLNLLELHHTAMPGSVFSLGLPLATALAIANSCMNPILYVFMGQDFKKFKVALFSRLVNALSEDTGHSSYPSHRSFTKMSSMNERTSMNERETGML
Assay: Activation of Tango CMKLR1-bla U2OS cells (beta-lactamase FRET reporter)
Assay type: cell-based
Method: The polypeptide sequences described above are the polypeptide sequences disclosed in the patent JP2010-229093A of BANYU PHARMA CO LTD: (D-Tyr)-Phe-Leu-Pro-(D-Ser)-Gln-Phe-(D-Ala)-Tic-Ser was used as a positive control (SEQ ID NO: 102).
The activation of the compound on Tango™ CMKLR1-bla U2OS cells (Invitrogen Cat. nos. K1551) was tested.
The activation of each compound in the above experiments on Tango™ CMKLR1-bla U2OS cells was determined as follows:
Day 1: Cell Seeding on Plate
2. The medium was removed, and the cells were washed with DPBS twice, followed by addition of 3 mL of 0.05% trypsin, and placed in a 37° C., 5% CO2 incubator (Thermo Fisher, Waltham, Massachusetts, USA) for 3-5 minutes. After the cells were rounded, 3-5 mL of medium (medium formula: DMEM 90%, Dialyzed FBS 10%, NEAA 0.1 mM, HEPES (pH 7.3) 25 mM, Penicillin 100 U/mL, Streptomycin 100 μg/mL) was added to terminate digestion.
2. The digested cells were transferred to a 15 mL centrifuge tube (430790, Corning), centrifuged at 1000 rpm for 5 minutes (5810R, Eppendorf, Hamburg, Germany), and the supernatant was discarded.
3. 7 mL of medium (DMEM+10% FBS) was added, blowed into a single cell suspension, counted by a cell counter, and adjusted the cell suspension to a desired cell density of 250,000/mL with the medium.
4. The cell suspension was seeded into a 384-well cell plate (Corning 3712) in 40 μL/well to make the number of cells 10000 cells/well, and 32 μL of medium was added to the blank control.
5. The incubation was performed overnight at 37° C. under 5% CO2.
Day 2: Dosing and Testing
1. Preparation of 200× Compound Plate
1.1 The test compound was formulated into a 10 mM working solution in DMSO.
1.2 45 μL of 10 mM test compound was added to the 2nd column of rows A to P in the Echo-384 well plate. The compound was subjected to a 3-fold dilution with Precision (30 μL of DMSO was added to the 3rd to 11th columns; 15 μL of the drug solution was pipetted from the 2nd column to the 3rd column, blown and evenly mixed; then 15 μL of the drug solution was pipetted from the 3rd column to the 4th column, blown and evenly mixed; the drugs was subjected to a 3-fold dilution to obtain 10 concentrations in total). The 1st and 12th columns of the Echo-384 well plate were supplemented with 30 μL of DMSO.
2. Preparation of Intermediate Plate
500 nL, i.e., 0.5 μL of the diluted compound (or DMSO) in the 200× compound plate was transferred into the corresponding position of V-bottom 384-well plate with Echo. 20 μL of medium was added to each well, centrifuged, shaken and evenly mixed. The concentration of the drugs in each well of the 2nd to 11th column of intermediate plate (i.e., 5× compound plate) were shown in following Table 4.
3.1 The cell plate was taken out from the incubator and observed under a microscope. The diluted compound or DMSO in the intermediate plate was added to the cell plate in 10 μL/well in the corresponding cell plate, and 40 μL of medium was pre-filled in each well.
3.2 The cells were incubated at 37° C. under 5% CO2 for 4 hours.
4.1 1 mM CCF4-AM, solution B, Solution C, and Solution D were used to prepare an appropriate amount of 6× detection solution. The LiveBLAzer™-FRET B/G Loading kit (K1095, Thermo Fisher, Waltham, Massachusetts, USA) kit containing CCF-4AM and solutionB, solutionC, and solutionD was also purchased from invitrogen (K1157, Thermo Fisher, Waltham, Massachusetts, USA).
4.2 The cells were observed under a microscope and the cell plate was equilibrated to room temperature.
4.3 6 μL of CCF-4AM dissolved solution A, 60 μL of solution B, 904 μL of solution C and 30 μL of solution D were pipetted in an EP tube, blown, and evenly mixed to obtain a 6× detection solution. The prepared 6× detection solution was pipetted to a 384-well plate in 10 μL/well.

[1] = determination by the method of Effect Embodiment 1, read-out: EC50

Structure (SMILES): CC(C)C[C@@H](C(=O)N1CCC[C@H]1C(=O)N[C@H](CO)C(=O)N[C@@H](CCC(N)=O)C(=O)N[C@@H](Cc1ccccc1)C(=O)N[C@H](C)C(=O)N1Cc2ccccc2C[C@@H]1C(=O)N(C)[C@@H](CO)C(=O)O)N(C)C(=O)[C@H](Cc1ccccc1)NC(=O)[C@H](N)Cc1ccc(O)cc1 [YW-182, (D-Tyr)-Phe-(NMe-Leu)-Pro-(D-Ser)-Gln-Phe-(D-Ala)-(D-Tic)-(NMe-Ser)] (H-[dY]F[NMeL]P[dS]QF[dA][dTic][NMeS]-OH)
- pEC50 [1]: 7.39

Structure (SMILES): CC(C)C[C@H](NC(=O)[C@H](Cc1ccccc1)NC(=O)[C@@H](Cc1ccc(O)cc1)NC(=O)CCCCc1ccccc1)C(=O)N1CCC[C@H]1C(=O)N[C@H](CO)C(=O)N[C@@H](CCC(N)=O)C(=O)N[C@@H](Cc1ccccc1)C(=O)N[C@H](C)C(=O)N1Cc2ccccc2C[C@H]1C(=O)N[C@@H](CO)C(=O)O [YW-76, 5-phenylvaleroyl-(D-Tyr)-Phe-Leu-Pro-(D-Ser)-Gln-Phe-(D-Ala)-Tic-Ser-OH] ({Pentanoyl(5-Ph)}-[dY]FLP[dS]QF[dA][Tic]S-OH)
- pEC50 [1]: 7.37

Structure (SMILES): CCN(C(=O)[C@H](Cc1ccccc1)NC(=O)[C@H](N)Cc1ccc(O)cc1)[C@@H](CC(C)C)C(=O)N1CCC[C@H]1C(=O)N[C@H](CO)C(=O)N[C@@H](CCC(N)=O)C(=O)N[C@@H](Cc1ccccc1)C(=O)N[C@H](C)C(=O)N1Cc2ccccc2C[C@H]1C(=O)N[C@@H](CO)C(=O)O [YW-183, (D-Tyr)-Phe-(NEt-Leu)-Pro-(D-Ser)-Gln-Phe-(D-Ala)-Tic-Ser] (H-[dY]F[NEtLeu]P[dS]QF[dA][Tic]S-OH)
- pEC50 [1]: 8.04

Structure (SMILES): CC(C)C[C@@H](C(=O)N1CCC[C@H]1C(=O)N[C@H](CO)C(=O)N[C@@H](CCC(N)=O)C(=O)N[C@@H](Cc1ccccc1)C(=O)N[C@H](C)C(=O)N1Cc2ccccc2C[C@H]1C(=O)N[C@@H](CO)C(=O)O)N(C)C(=O)[C@H](Cc1ccccc1)NC(=O)[C@@H](Cc1ccc(O)cc1)NC(=O)CC1CCCCC1 [YW-194, (2-Cyclohexylacetyl)-(D-Tyr)-Phe-(NMe-Leu)-Pro-(D-Ser)-Gln-Phe-(D-Ala)-Tic-Ser] (Cyclohexylacetyl-[dY]F[NMeL]P[dS]QF[dA][Tic]S-OH)
- pEC50 [1]: 8.92

Structure (SMILES): CC(C)C[C@H](NC(=O)[C@H](Cc1ccccc1)NC(=O)[C@H](N)Cc1ccc(O)cc1)C(=O)N1CCC[C@H]1C(=O)N[C@H](CO)C(=O)N(C)[C@@H](CCC(N)=O)C(=O)N[C@@H](Cc1ccccc1)C(=O)N[C@H](C)C(=O)N1Cc2ccccc2C[C@H]1C(=O)N[C@@H](CO)C(=O)O [YW-107, (D-Tyr)-Phe-Leu-Pro-(D-Ser)-(NMe-Gln)-Phe-(D-Ala)-Tic-Ser-OH] (H-[dY]FLP[dS][NMeQ]F[dA][Tic]S-OH)
- pEC50 [1]: < 4.30

Structure (SMILES): CC(C)C[C@H](NC(=O)[C@H](Cc1ccccc1)NC(=O)[C@H](N)Cc1ccc(O)cc1)C(=O)N1CCC[C@H]1C(=O)N[C@H](CO)C(=O)N(CCC(N)=O)CC(=O)N[C@@H](Cc1ccccc1)C(=O)N[C@H](C)C(=O)N1Cc2ccccc2C[C@H]1C(=O)N[C@@H](CO)C(=O)O [YW-108, (D-Tyr)-Phe-Leu-Pro-(D-Ser)-NGln-Phe-(D-Ala)-Tic-Ser-OH] (H-[dY]FLP[dS][Gly(Nα-CH2CH2CONH2)]F[dA][Tic]S-OH)
- pEC50 [1]: < 4.30

Structure (SMILES): CC(C)C[C@H](NC(=O)[C@H](Cc1ccccc1)NC(=O)[C@H](N)Cc1ccc(O)cc1)C(=O)N1CCC[C@H]1C(=O)N[C@H](CO)C(=O)N[C@@H](CCC(N)=O)C(=O)N[C@@H](Cc1ccccc1)C(=O)N[C@H](C)C(=O)N1Cc2ccccc2C[C@@H]1C(=O)N[C@@H](CO)C(=O)O [YW-149, (D-Tyr)-Phe-Leu-Pro-(D-Ser)-Gln-Phe-(D-Ala)-D-Tic-Ser-OH] (H-[dY]FLP[dS]QF[dA][dTic]S-OH)
- pEC50 [1]: 7.68

Structure (SMILES): CC(C)C[C@H](NC(=O)[C@H](Cc1ccccc1)NC(=O)[C@H](N)Cc1ccc(O)cc1)C(=O)N1CCC[C@H]1C(=O)N[C@H](CO)C(=O)N[C@@H](CCC(N)=O)C(=O)N[C@H](CO)C(=O)N[C@H](C)C(=O)N1Cc2ccccc2CN1C(=O)N[C@@H](CO)C(=O)O [YW-147, (D-Tyr)-Phe-Leu-Pro-(D-Ser)-Gln-(D-Ser)-(D-Ala)-azaTic-Ser-OH] (H-[dY]FLP[dS]Q[dS][dA][X3]S-OH; N-terminus assumed)
- EC50 (Tango CMKLR1-bla U2OS cells, 4 hours incubation, four-parameter fit of activation rate): no fit
- pEC50 [1]: < 4.30

Structure (SMILES): CC(C)C[C@@H](C(=O)N1CCC[C@H]1C(=O)N[C@H](CO)C(=O)N[C@@H](CCC(N)=O)C(=O)N[C@@H](Cc1ccccc1)C(=O)N[C@H](C)C(=O)N1Cc2ccccc2C[C@H]1C(=O)N[C@@H](CO)C(=O)O)N(C)C(=O)[C@H](Cc1cccc2ccccc12)NC(=O)[C@H](N)Cc1ccc(O)cc1 [YW-199, (D-Tyr)-1Nal-(NMe-Leu)-Pro-(D-Ser)-Gln-Phe-(D-Ala)-Tic-Ser] (H-[dY][1Nal][NMeL]P[dS]QF[dA][Tic]S-OH)
- pEC50: 8.54

Structure (SMILES): CN[C@H](Cc1ccc(O)cc1)C(=O)N[C@@H](Cc1ccccc1)C(=O)N(C)[C@@H](CC(C)C)C(=O)N1CCC[C@H]1C(=O)N[C@H](CO)C(=O)N[C@@H](CCC(N)=O)C(=O)N[C@@H](Cc1ccc2ccccc2c1)C(=O)N[C@H](C)C(=O)N1Cc2ccccc2C[C@H]1C(=O)N[C@@H](CO)C(=O)O [YW-167, (D-NMe-Tyr)-Phe-(NMe-Leu)-Pro-(D-Ser)-Gln-2Nal-(D-Ala)-Tic-Ser-OH] (H-[dNMeY]F[NMeL]P[dS]Q[2Nal][dA][Tic]S-OH)
- pEC50 [1]: 9.10

Structure (SMILES): CN[C@H](Cc1ccc(O)cc1)C(=O)N[C@@H](Cc1ccccc1)C(=O)N(C)[C@@H](CC(C)C)C(=O)N1CCC[C@H]1C(=O)N[C@H](CO)C(=O)N[C@@H](CCC(N)=O)C(=O)N[C@@H](Cc1cccc2ccccc12)C(=O)N[C@H](C)C(=O)N1Cc2ccccc2C[C@H]1C(=O)N(C)[C@@H](CO)C(=O)O [YW-162, (D-NMe-Tyr)-Phe-(NMe-Leu)-Pro-(D-Ser)-Gln-1Nal-(D-Ala)-Tic-NMeSer-OH] (H-[dNMeY]F[NMeL]P[dS]Q[1Nal][dA][Tic][NMeS]-OH)
- pEC50 [1]: 8.59

Structure (SMILES): CC(C)C[C@H](NC(=O)[C@H](Cc1ccccc1)NC(=O)[C@@H](Cc1ccc(O)cc1)NC(=S)NCCc1ccccc1)C(=O)N1CCC[C@H]1C(=O)N[C@H](CO)C(=O)N[C@@H](CCC(N)=O)C(=O)N[C@@H](Cc1ccccc1)C(=O)N[C@H](C)C(=O)N1Cc2ccccc2C[C@H]1C(=O)N[C@@H](CO)C(=O)O [YW-73, Phenethylcarbamothioyl-(D-Tyr)-Phe-Leu-Pro-(D-Ser)-Gln-Phe-(D-Ala)-Tic-Ser-OH] (X7-FLP[dS]QF[dA][Tic]S-OH)
- pEC50 [1]: 7.55

Structure (SMILES): CC(C)C[C@@H](C(=O)N1CCC[C@H]1C(=O)N[C@@H](C(=O)N[C@@H](CCC(N)=O)C(=O)N[C@@H](Cc1ccccc1)C(=O)N[C@H](C)C(=O)N1Cc2ccccc2C[C@H]1C(=O)N[C@@H](CO)C(=O)O)[C@H](C)O)N(C)C(=O)[C@H](Cc1ccccc1)NC(=O)[C@H](N)Cc1ccc(O)cc1 [YW-204, (D-Tyr)-Phe-(NMe-Leu)-Pro-(D-Thr)-Gln-Phe-(D-Ala)-Tic-Ser] (H-[dY]F[NMeL]P[dT]QF[dA][Tic]S-OH; N-terminus assumed)
- pEC50 [1]: 7.21
